In PubChem BioAssay AID250 (DTP/NCI, 2004) one finds T/C data, which are given here for five compounds.

SMILES strings stand for the structures. Values joined by “and” are separate entries in the source; they are usually repeats but may differ in a detail not shown here. Identical values can stand only once. Toxic doses and inconclusive results are not listed.

This experiment relates to BDF1 mice, L1210 leukemia sc, survival T/C. Kind of experiment: NCI In Vivo Anticancer Drug Screen. Data for tumor model L1210 Leukemia (subcutaneous) in B6D2F1 (BDF1) mice. To be noted: higher = longer survival. The gist of the method: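 Read-out: T/C ratio, i.e. survival or tumor size in treated mice over that in vehicle-treated controls, from mice bearing transplantable tumors.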

[1] abbreviates: endpoint: median survival time, dose: 300.0 mg/kg/injection, schedule: Q01DX Z (sc), vehicle: methylcellulose (MC).
[2] abbreviates: endpoint: median survival time, dose: 500.0 mg/kg/injection, schedule: Q01DX Z (sc), vehicle: methylcellulose (MC).

As to `O=c1[nH]cc(N(CCCl)CCCl)c(=O)[nH]1`, the T/C reads like this: (endpoint: median survival time, dose: 0.23 mg/kg/injection, schedule: Q01DX Z (sc), vehicle: other) 100 % of control; (endpoint: median survival time, dose: 0.39 mg/kg/injection, schedule: Q01DX Z (sc), vehicle: other) 100 % of control; (endpoint: median survival time, dose: 0.65 mg/kg/injection, schedule: Q01DX Z (sc), vehicle: other) 100 % of control; (endpoint: median survival time, dose: 1.08 mg/kg/injection, schedule: Q01DX Z (sc), vehicle: other) 100 % of control; (endpoint: median survival time, dose: 1.8 mg/kg/injection, schedule: Q01DX Z (sc), vehicle: other) 105 % of control and 110 % of control; (endpoint: median survival time, dose: 3.0 mg/kg/injection, schedule: Q01DX Z (sc), vehicle: other) 110 % of control and 115 % of control. The T/C reads like this: (endpoint: median survival time, dose: 5.0 mg/kg/injection, schedule: Q01DX Z (sc), vehicle: other) 150 % of control and 160 % of control; (endpoint: median survival time, dose: 8.4 mg/kg/injection, schedule: Q01DX Z (sc), vehicle: other) 100 % of control and 120 % of control; (endpoint: median survival time, dose: 14.0 mg/kg/injection, schedule: Q01DX Z (sc), vehicle: other) 120 % of control.

As to `CN(Cc1cnc2nc(N[Si](C)(C)C)nc(N[Si](C)(C)C)c2n1)c1ccc(C(=O)NC(CCC(=O)O[Si](C)(C)C)C(=O)O[Si](C)(C)C)cc1` (stereo not drawn), the T/C runs as follows: (endpoint: mean survival time, dose: 1.0 mg/kg/injection, schedule: Q01DX009 (ip), vehicle: Klucel (hydroxypropylcellulose) (HPC)) 150 % of control; (endpoint: mean survival time, dose: 2.0 mg/kg/injection, schedule: Q01DX009 (ip), vehicle: Klucel (hydroxypropylcellulose) (HPC)) 169 % of control; (endpoint: mean survival time, dose: 4.0 mg/kg/injection, schedule: Q01DX009 (ip), vehicle: Klucel (hydroxypropylcellulose) (HPC)) 176 % of control; (endpoint: mean survival time, dose: 8.0 mg/kg/injection, schedule: Q01DX009 (ip), vehicle: Klucel (hydroxypropylcellulose) (HPC)) 169 % of control; (endpoint: mean survival time, dose: 8.0 mg/kg/injection, schedule: Q04DX003 (ip), vehicle: Klucel (hydroxypropylcellulose) (HPC)) 156 % of control; (endpoint: mean survival time, dose: 16.0 mg/kg/injection, schedule: Q01DX009 (ip), vehicle: Klucel (hydroxypropylcellulose) (HPC)) 119 % of control. For the same compound, the T/C was 160 % of control (endpoint: mean survival time, dose: 32.0 mg/kg/injection, schedule: Q04DX003 (ip), vehicle: Klucel (hydroxypropylcellulose) (HPC)) and 160 % of control (endpoint: mean survival time, dose: 64.0 mg/kg/injection, schedule: Q04DX003 (ip), vehicle: Klucel (hydroxypropylcellulose) (HPC)).

In the case of `CC(C)Sc1nc(N)nc2nc[nH]c12`, the T/C is 100 % of control (endpoint: median survival time, dose: 23.0 mg/kg/injection, schedule: Q01DX Z (sc), vehicle: methylcellulose (MC)); 100 % of control (endpoint: median survival time, dose: 39.0 mg/kg/injection, schedule: Q01DX Z (sc), vehicle: methylcellulose (MC)); 111 % of control (endpoint: median survival time, dose: 65.0 mg/kg/injection, schedule: Q01DX Z (sc), vehicle: methylcellulose (MC)); 111 % of control (endpoint: median survival time, dose: 108.0 mg/kg/injection, schedule: Q01DX Z (sc), vehicle: methylcellulose (MC)); 111 % of control (endpoint: median survival time, dose: 180.0 mg/kg/injection, schedule: Q01DX Z (sc), vehicle: methylcellulose (MC)); 105 % of control under setting [1]. In addition, the T/C under setting [2] was 111 % of control.

Regarding `Nc1ccc(O)cc1`, the T/C by setting is: (endpoint: median survival time, dose: 130.0 mg/kg/injection, schedule: Q01DX Z (sc), vehicle: other) 95 % of control; (endpoint: median survival time, dose: 216.0 mg/kg/injection, schedule: Q01DX Z (sc), vehicle: other) 116 % of control; under setting [1], 112 % of control; under setting [2], 112 % of control; (endpoint: median survival time, dose: 600.0 mg/kg/injection, schedule: Q01DX Z (sc), vehicle: other) 87 % of control.

On to `CC[C@]1(O)C[C@H]2CN(CCc3c([nH]c4ccccc34)[C@@](C(=O)OC)(c3cc4c(cc3OC)N(C=O)[C@H]3[C@@](O)(C(=O)OC)[C@H](OC(C)=O)[C@]5(CC)C=CCN6CC[C@]43[C@@H]65)C2)C1`, for which the T/C (endpoint: median survival time, dose: 0.25 mg/kg/injection, schedule: Q01DX001 (sc), vehicle: water) was 100 % of control and 101 % of control; the T/C (endpoint: median survival time, dose: 0.5 mg/kg/injection, schedule: Q01DX001 (sc), vehicle: water) was 104 % of control and 105 % of control; the T/C (endpoint: median survival time, dose: 0.65 mg/kg/injection, schedule: Q01DX Z (oral), vehicle: water) is 116 % of control; the T/C (endpoint: median survival time, dose: 1.0 mg/kg/injection, schedule: Q01DX001 (sc), vehicle: water) is 111 % of control; the T/C (endpoint: median survival time, dose: 1.08 mg/kg/injection, schedule: Q01DX Z (oral), vehicle: water) is 122 % of control; the T/C (endpoint: median survival time, dose: 1.08 mg/kg/injection, schedule: Q02DX Z (sc), vehicle: water) is 111 % of control. The T/C (endpoint: median survival time, dose: 1.8 mg/kg/injection, schedule: Q01DX Z (oral), vehicle: water) was 100 % of control; the T/C (endpoint: median survival time, dose: 1.8 mg/kg/injection, schedule: Q02DX Z (sc), vehicle: water) was 122 % of control; the T/C (endpoint: median survival time, dose: 2.0 mg/kg/injection, schedule: Q01DX001 (sc), vehicle: water) is 120 % of control and 122 % of control; the T/C (endpoint: median survival time, dose: 3.0 mg/kg/injection, schedule: Q01DX Z (oral), vehicle: water) was 100 % of control; the T/C (endpoint: median survival time, dose: 3.0 mg/kg/injection, schedule: Q02DX Z (sc), vehicle: water) was 122 % of control; the T/C (endpoint: median survival time, dose: 5.0 mg/kg/injection, schedule: Q01DX Z (oral), vehicle: water) was 100 % of control. For the same compound, the T/C (endpoint: median survival time, dose: 5.0 mg/kg/injection, schedule: Q02DX Z (sc), vehicle: water) was 116 % of control and the T/C (endpoint: median survival time, dose: 8.4 mg/kg/injection, schedule: Q02DX Z (sc), vehicle: water) was 100 % of control.
